# Patent US10206937B2, “Boronic acid derivatives and therapeutic uses thereof” (Qpex Biopharma, Inc., priority 2014, dated 2019)
# System: strains of Enterobacteriaceae producing various carbapenemases (class A, D and B; 104 strains)
# Experiment: Antibiotics potentiation by Compound 27 (MIC; meropenem, doripenem, ertapenem, cefepime)
# Type: cell-based
# Settings: + 27 = with Compound 27 at fixed 4 μg/ml
structure (smiles),measurement,setting,value
COc1ccc2c(c1C(=O)O)OB(O)C(Sc1nnc(N)s1)C2 (centres unmarked) [M + 27],MIC,strain CF1012 Citrobacter freundii (KPC-2),X (MIC of less than 1 μg/mL)
same,MIC,strain CF1021 Citrobacter freundii (CMY-type; VIM-1),X (MIC of less than 1 μg/mL)
same,MIC,"strain CF1022 Citrobacter freundii (SHV-12(2be), TEM-OSBL(2b); IMP-8)",X (MIC of less than 1 μg/mL)
same,MIC,"strain CF1023 Citrobacter freundii (SHV-12(2be), TEM-OSBL(2b); CTX-M-3; CMY-34; NDM-1)",X (MIC of less than 1 μg/mL)
same,MIC,strain CL1080 Enterobacter cloacae (IMP-1),X (MIC of less than 1 μg/mL)
same,MIC,"strain EA1019 Enterobacter aerogenes (SHV-5, VIM-1)",X (MIC of less than 1 μg/mL)
same,MIC,strain EC1007 Escherichia coli (KPC-3),X (MIC of less than 1 μg/mL)
same,MIC,"strain EC1061 Escherichia coli (NDM-1, CMY-6)",X (MIC of less than 1 μg/mL)
same,MIC,"strain EC1062 Escherichia coli (OXA-48, CTX-M-15)",X (MIC of less than 1 μg/mL)
same,MIC,"strain EC1064 Escherichia coli (NDM-1, CMY-6, CTX-M-15)",Y (MIC of 1 μg/mL to 10 μg/mL)
same,MIC,strain EC1065 Escherichia coli (IMP-1),X (MIC of less than 1 μg/mL)
same,MIC,strain EC1068 Escherichia coli (VIM-1),X (MIC of less than 1 μg/mL)
same,MIC,strain EC1069 Escherichia coli (CTX-M-27; NDM-1),X (MIC of less than 1 μg/mL)
same,MIC,strain EC1070 Escherichia coli (TEM-OSBL(2b); CMY-42; NDM-5),X (MIC of less than 1 μg/mL)
same,MIC,strain EC1072 Escherichia coli (CTX-M-3; NDM-1),X (MIC of less than 1 μg/mL)
same,MIC,strain ECL1004 Enterobacter cloacae (NMC-A),X (MIC of less than 1 μg/mL)
same,MIC,"strain ECL1026 Enterobacter cloacae (KPC-2, TEM-1)",X (MIC of less than 1 μg/mL)
same,MIC,"strain ECL1036 Enterobacter cloacae (KPC-3, TEM-1)",X (MIC of less than 1 μg/mL)
same,MIC,strain ECL1045 Enterobacter cloacae (VIM-1),X (MIC of less than 1 μg/mL)
same,MIC,"strain ECL1055 Enterobacter cloacae (KPC-3, TEM)",X (MIC of less than 1 μg/mL)
same,MIC,"strain ECL1057 Enterobacter cloacae (NDM-1, TEM-1, CTX-M-15)",Z (MIC of greater than 10 μg/mL)
same,MIC,"strain ECL1058 Enterobacter cloacae (KPC-3, SHV-11, TEM-1)",X (MIC of less than 1 μg/mL)
same,MIC,"strain ECL1059 Enterobacter cloacae (KPC-3, SHV-12, TEM-1)",X (MIC of less than 1 μg/mL)
same,MIC,"strain ECL1061 Enterobacter cloacae (KPC-3, Hyper AmpC expression)",X (MIC of less than 1 μg/mL)
same,MIC,strain ECL1082 Enterobacter cloacae (VIM-1),X (MIC of less than 1 μg/mL)
same,MIC,strain ECL1084 Enterobacter cloacae (CTX-M-15; ACT-16; NDM-1),X (MIC of less than 1 μg/mL)
same,MIC,"strain ECL1085 Enterobacter cloacae (SHV-31(2be), TEM-1(2b); CTX-M-15; NDM-1)",X (MIC of less than 1 μg/mL)
same,MIC,"strain ECL1086 Enterobacter cloacae (VIM-31, OXA-48(c))",X (MIC of less than 1 μg/mL)
same,MIC,strain ECL1087 Enterobacter cloacae (VIM-1),X (MIC of less than 1 μg/mL)
same,MIC,strain ECL1088 Enterobacter cloacae (TEM-1(2b); CTX-M-14; ACT-type; VIM-1),X (MIC of less than 1 μg/mL)
same,MIC,strain ECL1089 Enterobacter cloacae (ACT-type; IMP-1),Y (MIC of 1 μg/mL to 10 μg/mL)
same,MIC,strain ECL1090 Enterobacter cloacae (TEM-1(2b); CTX-M-22; ACT-type; IMP-8),X (MIC of less than 1 μg/mL)
same,MIC,strain ECL1091 Enterobacter cloacae (VIM-1),X (MIC of less than 1 μg/mL)
same,MIC,strain ECL1092 Enterobacter cloacae (TEM-OSBL(2b); ACT-32; VIM-1),X (MIC of less than 1 μg/mL)
same,MIC,strain ECL1093 Enterobacter cloacae (TEM-OSBL(2b); ACT-32; VIM-1),X (MIC of less than 1 μg/mL)
same,MIC,strain ECL1094 Enterobacter cloacae (VIM-1),X (MIC of less than 1 μg/mL)
same,MIC,"strain ECL1096 Enterobacter cloacae (CMY-4, VIM-4, OXA-48(c))",X (MIC of less than 1 μg/mL)
same,MIC,"strain ECL1097 Enterobacter cloacae (SHV-31(2be), TEM-OSBL(2b); CTX-M-15; ACT-31; NDM-1)",X (MIC of less than 1 μg/mL)
same,MIC,strain ECL1098 Enterobacter cloacae (TEM-OSBL(2b); DHA-1; ACT-16; NDM-1),X (MIC of less than 1 μg/mL)
same,MIC,strain KP1001 Klebsiella pneumoniae (KPC TEM SHV),Y (MIC of 1 μg/mL to 10 μg/mL)
same,MIC,strain KP1002 Klebsiella pneumoniae (KPC TEM SHV),X (MIC of less than 1 μg/mL)
same,MIC,strain KP1003 Klebsiella pneumoniae (KPC TEM SHV),X (MIC of less than 1 μg/mL)
same,MIC,"strain KP1004 Klebsiella pneumoniae (KPC-2, TEM-1, SHV-11)",X (MIC of less than 1 μg/mL)
same,MIC,strain KP1008 Klebsiella pneumoniae (KPC-2),X (MIC of less than 1 μg/mL)
same,MIC,"strain KP1014 Klebsiella pneumoniae (VIM-1, TEM, SHV)",X (MIC of less than 1 μg/mL)
same,MIC,"strain KP1054 Klebsiella pneumoniae (VIM-1, SHV-11)",X (MIC of less than 1 μg/mL)
same,MIC,"strain KP1059 Klebsiella pneumoniae (VIM-1, SHV-11)",Y (MIC of 1 μg/mL to 10 μg/mL)
same,MIC,"strain KP1061 Klebsiella pneumoniae (KPC-3, SHV-11, TEM-1)",X (MIC of less than 1 μg/mL)
same,MIC,"strain KP1064 Klebsiella pneumoniae (KPC-2, SHV-11, TEM-1)",Y (MIC of 1 μg/mL to 10 μg/mL)
same,MIC,"strain KP1065 Klebsiella pneumoniae (VIM-1, SHV-11)",X (MIC of less than 1 μg/mL)
same,MIC,"strain KP1070 Klebsiella pneumoniae (KPC-2, SHV-11, TEM-1)",X (MIC of less than 1 μg/mL)
same,MIC,"strain KP1074 Klebsiella pneumoniae (KPC-3, SHV-11, TEM)",Z (MIC of greater than 10 μg/mL)
same,MIC,"strain KP1081 Klebsiella pneumoniae (NDM-1, TEM-1, SHV-11, CMY-6, CTX-M-15)",X (MIC of less than 1 μg/mL)
same,MIC,"strain KP1082 Klebsiella pneumoniae (KPC-2, SHV-1)",X (MIC of less than 1 μg/mL)
same,MIC,"strain KP1083 Klebsiella pneumoniae (KPC-3, SHV-1, TEM-1)",X (MIC of less than 1 μg/mL)
same,MIC,"strain KP1084 Klebsiella pneumoniae (KPC-3, SHV-11, TEM-1)",Y (MIC of 1 μg/mL to 10 μg/mL)
same,MIC,"strain KP1086 Klebsiella pneumoniae (OXA-48, CTX-M-15, TEM, SHV)",Y (MIC of 1 μg/mL to 10 μg/mL)
same,MIC,"strain KP1087 Klebsiella pneumoniae (KPC-2, CTX-M-15, SHV-11, TEM-1)",Y (MIC of 1 μg/mL to 10 μg/mL)
same,MIC,"strain KP1088 Klebsiella pneumoniae (KPC-3, SHV-11, TEM-1)",X (MIC of less than 1 μg/mL)
same,MIC,"strain KP1089 Klebsiella pneumonias (OXA-181, CTX-M-15, TEM, SHV)",X (MIC of less than 1 μg/mL)
same,MIC,strain KP1095 Klebsiella pneumoniae (KPC-2 TEM-1 SHV-1),X (MIC of less than 1 μg/mL)
same,MIC,strain KP1096 Klebsiella pneumoniae (KPC-2 TEM-181 SHV-11),X (MIC of less than 1 μg/mL)
same,MIC,strain KP1097 Klebsiella pneumonias (IMP-1),X (MIC of less than 1 μg/mL)
same,MIC,strain KP1098 Klebsiella pneumoniae (IMP-26),Y (MIC of 1 μg/mL to 10 μg/mL)
same,MIC,strain KP1104 Klebsiella pneumoniae (KPC TEM),X (MIC of less than 1 μg/mL)
same,MIC,strain KP1105 Klebsiella pneumoniae (KPC TEM SHV),X (MIC of less than 1 μg/mL)
same,MIC,strain KP1159 Klebsiella pneumoniae (SHV-1(2b); CTX-M-15; IMP-4),X (MIC of less than 1 μg/mL)
same,MIC,strain KP1160 Klebsiella pneumoniae (SHV-28(2be); CTX-M-15; IMP-26),X (MIC of less than 1 μg/mL)
same,MIC,strain KP1161 Klebsiella pneumoniae (NDM-1),X (MIC of less than 1 μg/mL)
same,MIC,strain KP1164 Klebsiella pneumoniae (SHV-12(2be); VIM-1),X (MIC of less than 1 μg/mL)
same,MIC,strain KP1165 Klebsiella pneumoniae (SHV-11(2b); CTX-M-15; VIM-27),Z (MIC of greater than 10 μg/mL)
same,MIC,strain KP1166 Klebsiella pneumoniae (SHV-5(2be); VIM-26),Y (MIC of 1 μg/mL to 10 μg/mL)
same,MIC,strain KP1167 Klebsiella pneumoniae (SHV-12(2be); VIM-1),X (MIC of less than 1 μg/mL)
same,MIC,strain KP1169 Klebsiella pneumoniae (SHV-11(2b); VIM-1),X (MIC of less than 1 μg/mL)
same,MIC,strain KP1170 Klebsiella pneumoniae (SHV-11(2b); CTX-M-15; NDM-1),X (MIC of less than 1 μg/mL)
same,MIC,strain KP1172 Klebsiella pneumoniae (SHV-31(2be); DHA-1; VIM-1),X (MIC of less than 1 μg/mL)
same,MIC,strain KP1173 Klebsiella pneumoniae (TEM-33(2br); CTX-M-15; IMP-1),X (MIC of less than 1 μg/mL)
same,MIC,strain KP1174 Klebsiella pneumoniae (CTX-M-14; IMP-1),X (MIC of less than 1 μg/mL)
same,MIC,strain KP1175 Klebsiella pneumoniae (SHV-OSBL(2b); VIM-1),X (MIC of less than 1 μg/mL)
same,MIC,"strain KP1177 Klebsiella pneumoniae (SHV-OSBL(2b), TEM-OSBL(2b); CTX-M-15; NDM-1)",X (MIC of less than 1 μg/mL)
same,MIC,strain KP1178 Klebsiella pneumoniae (SHV-OSBL(2b;) TEM-OSBL(2b); CTX-M-15; NDM-1),X (MIC of less than 1 μg/mL)
same,MIC,"strain KP1179 Klebsiella pneumoniae (SHV-12(2be), TEM-OSBL(2b); CTX-M-15; NDM-7)",X (MIC of less than 1 μg/mL)
same,MIC,"strain KP1180 Klebsiella pneumoniae (SHV-OSBL(2b), TEM-OSBL(2b); CTX-M-15; DHA-1; IMP-26)",X (MIC of less than 1 μg/mL)
same,MIC,strain KP1181 Klebsiella pneumoniae (SHV-OSBL(2b); CTX-M-15; IMP-26),X (MIC of less than 1 μg/mL)
same,MIC,"strain KP1183 Klebsiella pneumoniae (SHV-OSBL(2b), TEM-OSBL(2b); CTX-M-15; NDM-1)",X (MIC of less than 1 μg/mL)
same,MIC,strain KP1184 Klebsiella pneumoniae (SHV-OSBL(2b); IMP-1),X (MIC of less than 1 μg/mL)
same,MIC,"strain KP1185 Klebsiella pneumoniae (SHV-OSBL(2b), TEM-OSBL(2b); IMP-4)",Y (MIC of 1 μg/mL to 10 μg/mL)
same,MIC,strain KP1186 Klebsiella pneumoniae (CTX-M-15; NDM-1),X (MIC of less than 1 μg/mL)
same,MIC,"strain KP1187 Klebsiella pneumoniae (SHV-55(2be), TEM-OSBL(2b); CTX-M-15; NDM-1)",X (MIC of less than 1 μg/mL)
same,MIC,strain KP1188 Klebsiella pneumoniae (SHV-OSBL(2b); CTX-M-15; NDM-1),Y (MIC of 1 μg/mL to 10 μg/mL)
same,MIC,strain KP1189 Klebsiella pneumoniae (TEM-OSBL(2b); CTX-M-15; CTX-M-27; NDM-1),X (MIC of less than 1 μg/mL)
same,MIC,strain KPM1123 Klebsiella pneumoniae (KPC-2 TEM SHV),X (MIC of less than 1 μg/mL)
same,MIC,strain KPM1202 Klebsiella pneumoniae (KPC SHV TEM),X (MIC of less than 1 μg/mL)
same,MIC,strain KPM1203 Klebsiella pneumoniae (KPC SHV TEM),X (MIC of less than 1 μg/mL)
same,MIC,strain KPM1344 Klebsiella pneumoniae (VIM-1),X (MIC of less than 1 μg/mL)
same,MIC,strain KPM1345 Klebsiella pneumoniae (VIM-1 SHV),X (MIC of less than 1 μg/mL)
same,MIC,strain KPM1347 Klebsiella pneumoniae (NDM-1 SHV CTX-M-15),X (MIC of less than 1 μg/mL)
same,MIC,"strain KX1017 Klebsiella oxytoca (KPC-2, OXA-2, SHV-30)",X (MIC of less than 1 μg/mL)
same,MIC,"strain KX1018 Klebsiella oxytoca (KPC-2, SHV-40, OXY-1)",X (MIC of less than 1 μg/mL)
same,MIC,"strain KX1019 Klebsiella oxytoca (KPC-2, OXA-2)",X (MIC of less than 1 μg/mL)
same,MIC,strain PM1024 Proteus mirabilis (TEM-1(2b); CMY-16; VIM-1),X (MIC of less than 1 μg/mL)
same,MIC,strain PM1026 Proteus mirabilis (DHA-1; IMP-26),X (MIC of less than 1 μg/mL)
same,MIC,strain PM1027 Proteus mirabilis (VIM-5),X (MIC of less than 1 μg/mL)
same,MIC,strain SM1023 Serratia marcescens (VIM-4),Y (MIC of 1 μg/mL to 10 μg/mL)
